Measurements published in paper PMC3608532, “Characterization of a Single-Chain Variable Fragment Recognizing a Linear Epitope of Aβ: A Biotechnical Tool for Studies on Alzheimer’s Disease?” (PLoS ONE, 2013).

How the values were obtained:
Aβ(1-8) = assay: SPR binding kinetics to immobilized Aβ(1-8); conditions: SPR Biacore X, PBS, 25°C, global fit, scFv-IC16 Langmuir 1:1 model, IC16 bivalent model, ± standard error, SEM
Description: (§1) Binding kinetics were determined by SPR using a Biacore™ X (GE Healthcare, UK). Synthetic Aβ peptides were dissolved in 10 mM NaAc, pH 4.0. The CM5 sensor chip surface (GE Healthcare, UK) was activated using N-ethyl-N′-3 […] carbodiimide (EDC) and N-hydroxysuccinimide (NHS) chemistry followed by 2-(2-pyridinyldithio)ethaneamine hydrochloride (PDEA), in order to introduce a reactive thiol group. Aβ was coupled via the C-terminal cysteine to the chip at a flow rate of 5 µl/min, and the remaining active groups were blocked by injecting cysteine. The immobilization procedure was performed according to manufacturer’s recommendation. All kinetic analyses were performed at a flow rate of 20 µl/min in PBS. Varying concentrations of scFv-IC16 (10 to 5000 nM) and IC16 (10 to 1000 nM) were injected. […] When required, the surface was regenerated by injecting 20 µl 50 mM glycine, pH 11.0. The data evaluation was performed using Biaevaluation Software 4.1.1. ScFv-IC16 data were fitted according to the Langmuir 1∶1 binding model, whereas IC16 data were fitted according to the bivalent binding model. Standard errors of equilibrium dissociation constants (KD) were calculated using standard errors of the corresponding association and dissociation rate constants.

Aβ(2-8) = assay: SPR binding kinetics to immobilized Aβ(2-8); conditions: SPR Biacore X, CM5 chip, PBS, 25°C, global fit; scFv-IC16 Langmuir 1:1 model, IC16 bivalent model; ± standard error; SEM
Description: as §1

Aβ(3-8) = assay: SPR binding kinetics to immobilized Aβ(3-8); conditions: SPR Biacore X, CM5 chip, PBS, 25°C, global fit; scFv-IC16 Langmuir 1:1 model, IC16 bivalent model; ± standard error; SEM
Description: as §1

Aβ(pE3-8) = assay: SPR binding kinetics to immobilized Aβ(pE3-8); conditions: SPR Biacore X, CM5 chip, PBS, 25°C, global fit, IC16 bivalent model
Description: as §1

Aβ(8-15) = assay: SPR binding kinetics to immobilized Aβ(8-15)
Description: as §1

k on (Aβ(1-8); Aβ peptide coupled via C-terminal cysteine to CM5 chip, 20 µl/min): 3.5±0.02×10^4 M^-1 s^-1
k off (Aβ(1-8); CM5 chip): 1.8±0.02×10^−3 s^-1
k off (Aβ(2-8)): 1.54±0.006×10^−3 s^-1
k on (Aβ(2-8)): 4.85±0.01×10^4 M^-1 s^-1
k off (Aβ(3-8)): 3.43±0.007×10^−3 s^-1
k on (Aβ(3-8)): 4.17±0.006×10^4 M^-1 s^-1
Kd (Aβ(pE3-8); n.d. = no detectable binding (footnote)): 1500 nM
k off (Aβ(pE3-8); ± standard error, SEM): 63±0.05×10^−3 s^-1
k on (Aβ(pE3-8); ± standard error, SEM): 4.21±0.008×10^4 M^-1 s^-1
interaction with Aβ(8-15) (Aβ(8-15)): No interaction
Substance: IC16: monoclonal IgG2a antibody recognizing Aβ(1-8), from hybridoma of mouse immunized with KLH Aβ(1-16)
